According to ChEMBL document CHEMBL1158942, “Novel meroterpenoids from Cystoseira mediterranea: use of the crown-gall bioassay as a primary screen for lipophilic antineoplastic agents” (1991):

System: Agrobacterium tumefaciens
Assay: Antitumor activity against Agrobacterium tumefaciens B6-induced crown gall tumor in potato tubers at 10000 uM after 15 to 20 days by crown gall tumor potato disk test
Format: functional

How did the inhibition at 10000 µM turn out when Cc1cc(O)cc2c1OC(C)(CC1=C3C[C@@H](O)C(C)(C)OC1C(C)(C)CCCC3=O)CC2 (stereo partly drawn) [CYSTOSEIROL] was run?
Its inhibition at 10000 µM is 73%.

COc1cc(C)c(O)c(C/C=C(\C)CC(=O)CCCC(=O)C=C(C)C)c1 [MEDITERRANENONE] was tested. Which inhibition at 10000 µM did it give?
The inhibition at 10000 µM was 76%.

C/C(=C\Cc1cc(O)cc(C)c1O)CC(=O)C[C@@]1(C)CC2C(O)=CC(O)=C[C@]1(C)C2(C)C [MEDITERRANEOL A] was tested. Which inhibition at 10000 µM did it give?
The inhibition at 10000 µM was 88%.
